Consider two molecules from patent publication US8067175B2, “Methods and compositions for detecting a drug resistant EGFR mutant” (priority 2005, dated 2011).

Molecules are shown by their SMILES.

In this data set the test system is lung adenocarcinoma. Briefly: Case reports of patients treated with gefitinib or erlotinib.

On to `C#Cc1cccc(Nc2ncnc3cc(OCCOC)c(OCCOC)cc23)c1` [erlotinib], for which the “CT scan response of bilateral nodules” value (patient 2, 150 mg daily, 4 mo after treatment) was “markedly reduced in number and size”. In addition, where the note is “patient 2, after 14 mo of therapy, dose decreased to 100 mg daily”, the “adverse effect leading to dose decrease” value is reported as “fatigue”. The disease outcome (patient 2, after 25 mo of treatment) is “the disease progressed within the lung”.
With `COc1cc2ncnc(Nc3ccc(F)c(Cl)c3)c2cc1OCCCN1CCOCC1` [gefitinib], the chest radiograph response entry (patient 1, 250 mg daily, 2 wk after start) is listed as “dramatic improvement”. Further, the chest radiograph outcome (patient 1, nine mo later) is on record as “progression of disease”. Moreover, the “disease outcome on adjuvant treatment” value (patient 3, after three mo) is recorded as “developed a new left-sided malignant pleural effusion”.
